Test results: patent publication US9555024B2, “Substituted (E)-N′-(1-phenylethylidene)benzohydrazide analogs as histone demethylase inhibitors” (University of Utah Research Foundation, priority 2011, dated 2017)
pIC50: −log10 of the molar value.

Assays:
MAO B = MAO B (Homo sapiens (Human), UniProt P27338); experiment: Monoamine Oxidase assay (MAO-Glo Assay Kit); conditions: result in words
heme oxygenase (HMOX) = experiment: Real-Time PCR of heme oxygenase (HMOX) expression in T-47D cells; format: cell-based, human; conditions: normalized to HPRT and β-actin
Procedure: Briefly, T-47D cells were seeded in 96-well plates and treated with concentrations of inhibitors as indicated. Cell lysates, Reverse transcription, and single color syber green realtime PCR was performed using the Cells-to-Ct kit (Life Technologies). Transcript levels of heme oxygenase (HMOX) were normalized to hypoxanthine phosphoribosyltransferase (HPRT) and β-actin.

T-47D cells = experiment: Cell Viability Assay (ATPlite); format: cell-based; conditions: Homo sapiens, T47D, 96-hours of incubation, read-out: Cell Growth, IC50
Procedure: Cells were cultured according to the procedures provided. […] Cells were cultured at 37° C. and 5% CO2.
Cell viability was determined using ATPlite™ Luminescence Assay System (PerkinElmer Inc., Waltham, Mass.) using the various cell-lines described above and in Table 4. Briefly, cells were seeded in 96-well plates and then treated with different concentrations of inhibitor (0.1% final DMSO concentration). After 96-hours of incubation, ATPlite detection reagent was added directly to the culture well. Luminescence was read 5 minutes later on an Envision microplate reader.
(§1) IC50 values are determined using GraphPad Prism 5 software. The data were entered as an X-Y plot into the software as percent inhibition for each concentration of the drug. The concentration values of the drug were log transformed and the nonlinear regression was carried out using the “sigmoidal dose-response (variable slope)” option within the GraphPad software to model the data and calculate IC50 values.

MAO A = MAO A (Homo sapiens (Human), UniProt P21397); experiment: Monoamine Oxidase assay (MAO-Glo Assay Kit); conditions: result in words
Sequence of MAO A (P21397 whole entry): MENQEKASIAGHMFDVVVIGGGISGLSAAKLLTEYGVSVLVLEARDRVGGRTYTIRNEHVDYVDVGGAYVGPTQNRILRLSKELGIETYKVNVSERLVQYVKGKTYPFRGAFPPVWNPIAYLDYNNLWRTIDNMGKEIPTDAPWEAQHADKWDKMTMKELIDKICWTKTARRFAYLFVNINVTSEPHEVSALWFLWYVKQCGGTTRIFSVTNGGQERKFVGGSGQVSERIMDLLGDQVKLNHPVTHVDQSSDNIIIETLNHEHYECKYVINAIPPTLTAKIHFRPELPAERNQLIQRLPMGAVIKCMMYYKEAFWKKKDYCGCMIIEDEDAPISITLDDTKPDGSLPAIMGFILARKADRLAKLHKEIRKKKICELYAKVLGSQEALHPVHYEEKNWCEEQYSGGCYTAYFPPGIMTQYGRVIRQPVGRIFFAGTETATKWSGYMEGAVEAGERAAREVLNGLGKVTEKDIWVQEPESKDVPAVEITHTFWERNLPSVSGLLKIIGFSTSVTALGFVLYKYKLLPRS
Procedure: Recombinant (expressed in baculovirus infected BTI insect cells) monoamine oxidase A and monoamine oxidase B (Catalog No. M7316 and M7441, respectively) were purchased from Sigma-Aldrich Co. LLC. […] MAO-Glo™ Assay Kit was purchased from Promega Corporation (Madison, Wis.).
Briefly, 6.25 μL of test compound was added to each well of a 384-well plate. Enzyme (either MAO A or B) was added (12.5 μL in 2× buffer containing 1 μg protein) and allowed to incubate for 5 minutes. Finally, 6.25 μL of 4×MAO substrate was added to each well. Following a one hour incubation, 25 μL of Luciferin detection reagent was added to each well, and incubated for 20 minutes. Luminescence was then measured on an Envision microplate reader.
as §1

Sequence of MAO B (P27338 whole entry): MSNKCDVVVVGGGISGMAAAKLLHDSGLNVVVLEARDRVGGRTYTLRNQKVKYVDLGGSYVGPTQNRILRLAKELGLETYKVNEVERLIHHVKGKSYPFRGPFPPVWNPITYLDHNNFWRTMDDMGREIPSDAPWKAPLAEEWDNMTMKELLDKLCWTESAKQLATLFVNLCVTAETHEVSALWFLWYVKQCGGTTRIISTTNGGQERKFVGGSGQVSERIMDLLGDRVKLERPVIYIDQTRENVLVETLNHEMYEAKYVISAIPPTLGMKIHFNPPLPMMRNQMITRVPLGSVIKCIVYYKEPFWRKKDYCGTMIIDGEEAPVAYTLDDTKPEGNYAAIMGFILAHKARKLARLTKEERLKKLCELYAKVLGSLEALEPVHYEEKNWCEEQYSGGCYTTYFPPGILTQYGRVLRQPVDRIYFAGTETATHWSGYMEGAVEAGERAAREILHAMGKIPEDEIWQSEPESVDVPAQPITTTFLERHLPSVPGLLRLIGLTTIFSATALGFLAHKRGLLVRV

Compound	activity against MAO B (MAO B)	HMOX expression (fold-induction) (heme oxygenase (HMOX))	pIC50 (T-47D cells)	activity against MAO A (MAO A)
O=C(N/N=C/c1ccccc1O)c1ccc(O)cc1 [Compound 1]	comparable activity to tranylcypromine	–	–	–
C/C(=N\NC(=O)c1ccccc1)c1c(O)cccc1O [Compound 14]	–	1.1	< 5.00	–
N[C@@H]1CC1c1ccccc1 (some centres unmarked) [tranylcypromine, reference compound]	exhibited activity	–	–	exhibited activity
